# Data from ChEMBL document CHEMBL5365456, “Isolation and biological activity of natural chalcones based on antibacterial mechanism classification” (Bioorg Med Chem, 2023).
# Experiments:
# [1] = Inhibition of Staphylococcus aureus IFO 3007 membrane NADH oxidase by absorbance based assay; assay type: cell membranes
# Staphylococcus aureus [2] = experiment: Antibacterial activity against Staphylococcus aureus IFO 3007 assessed bacterial growth inhibition by two-fold serial broth dilution method; assay type: functional
# Bacillus subtilis = experiment: Antibacterial activity against Bacillus subtilis IFO 3060 assessed bacterial growth inhibition by two-fold serial broth dilution method; assay type: functional
# Micrococcus luteus = experiment: Antibacterial activity against Micrococcus luteus IFO 3333 assessed bacterial growth inhibition by two-fold serial broth dilution method; assay type: functional
# Escherichia coli [3] = experiment: Antibacterial activity against Escherichia coli HUT 215 assessed bacterial growth inhibition by two-fold serial broth dilution method; assay type: functional
# Pseudomonas aeruginosa = experiment: Antibacterial activity against Pseudomonas aeruginosa JCM 2776 assessed bacterial growth inhibition by two-fold serial broth dilution method; assay type: functional
# [4] = Inhibition of Micrococcus luteus IFO 3333 membrane NADH oxidase by absorbance based assay; assay type: cell membranes
# [5] = Inhibition of Escherichia coli HUT 215 membrane NADH oxidase by absorbance based assay; assay type: cell membranes
# [6] = Inhibition of Pseudomonas aeruginosa JCM 2776 membrane NADH oxidase by absorbance based assay; assay type: cell membranes
# [7] = Inhibition of Micrococcus luteus IFO 3333 membrane NADH-cytochrome c reductase by absorbance based assay; assay type: cell membranes
# Staphylococcus aureus [8] = experiment: Antibacterial activity against Staphylococcus aureus MSSA1 assessed bacterial growth inhibition by CLSI-based broth microdilution method; assay type: functional
# [9] = Haemolytic activity in rabbit Erythrocyte infected with Staphylococcus aureus ATCC 29213 assessed as inhibition of alpha-toxin production at 0.125 ug/ml incubated for 20 mins; assay type: toxicity, cell-based, Oryctolagus cuniculus; settings: at 0.125 µg/mL
# [10] = Haemolytic activity in rabbit Erythrocyte infected with Staphylococcus aureus ATCC 10832 assessed as inhibition of alpha-toxin production at 0.125 ug/ml incubated for 20 mins; assay type: toxicity, cell-based, Oryctolagus cuniculus; settings: at 0.125 µg/mL
# Staphylococcus aureus [11] = experiment: Antibacterial activity against Staphylococcus aureus ATCC 29213 assessed as bacterial growth inhibition incubated for 24 hrs by CLSI-based broth microdilution assay; assay type: functional
# Staphylococcus aureus [12] = experiment: Antibacterial activity against Staphylococcus aureus ATCC 10832 assessed as bacterial growth inhibition incubated for 24 hrs by CLSI-based broth microdilution assay; assay type: functional
# [13] = Inhibition of FAS2 in Mycobacterium smegmatis mc2 155 transfected with pVV16 vector by BCA assay; set-up: species or system Mycolicibacterium smegmatis
# [14] = Inhibition of FAS2 in Mycobacterium smegmatis mc2 155 transfected with pVV16 vector expressing Rv0636 by BCA assay; set-up: species or system Mycolicibacterium smegmatis
# [15] = Inhibition of His-tagged Escherichia coli ANS1 FabG using acetoacetyl-CoA as substrate by spectrometric analysis
# [16] = Inhibition of His-tagged Escherichia coli ANS1 Fab1 using trans-2-octanoyl-N-acetylcysteamine as substrate by spectrometric analysis
# Escherichia coli [17] = experiment: Antibacterial activity against Escherichia coli ANS1 assessed as bacterial growth inhibition incubated for 20 hrs by broth microdilution method; assay type: functional
# Rhizomucor pusillus = experiment: Antibacterial activity against Rhizomucor pusillus HUT 1185 assessed bacterial growth inhibition by two-fold serial broth dilution method; assay type: functional
# Staphylococcus aureus [18] = experiment: Antibacterial activity against methicillin-Sensitive Staphylococcus aureus ATCC 29213 assessed as bacterial growth inhibition by CLSI-based broth microdilution method; assay type: functional
# Staphylococcus aureus [19] = experiment: Antibacterial activity against methicillin-Resistant Staphylococcus aureus 2985 assessed as bacterial growth inhibition by CLSI-based broth microdilution method; assay type: functional
# Candida albicans [20] = experiment: Antifungal activity against Candida albicans LAM-1 assessed as fungal growth inhibition incubated for 24 hrs; assay type: functional
# Candida albicans [21] = experiment: Antifungal activity against Candida albicans ATCC 28366 assessed as fungal growth inhibition incubated for 24 hrs; assay type: functional
# Candida albicans [22] = experiment: Inhibition of Candida albicans LAM-1 hyphal transition at 100 ug/ml incubated upto 4 hrs relative to control; assay type: functional
# Candida albicans [23] = experiment: Inhibition of Candida albicans ATCC 28366 hyphal transition at 100 ug/ml incubated upto 4 hrs relative to control; assay type: functional
# Staphylococcus aureus [24] = experiment: Antibacterial activity against Staphylococcus aureus ATCC 29213 assessed bacterial growth inhibition by CLSI-based broth microdilution method; assay type: functional
# [25] = Haemolytic activity in rabbit Erythrocyte infected with Staphylococcus aureus ATCC 29213 assessed as inhibition of alpha-toxin production at 2 ug/ml incubated for 15 mins; assay type: toxicity, cell-based, Oryctolagus cuniculus; settings: 0.25 h, at 2 µg/mL
# [26] = Haemolytic activity in rabbit Erythrocyte infected with methicillin-Resistant Staphylococcus aureus 2985 assessed as inhibition of alpha-toxin production at 2 ug/ml incubated for 15 mins; assay type: toxicity, cell-based, Oryctolagus cuniculus; settings: 0.25 h, at 2 µg/mL
# Streptococcus suis [27] = experiment: Antibacterial activity against Streptococcus suis 05ZYH33 assessed as bacterial growth inhibition incubated for 24 hrs; assay type: functional
# [28] = Hemolytic activity in human RBC infected with Streptococcus suis 05ZYH33 at 1.5 ug/ml measured after 1 hr by microplate reader method; assay type: toxicity, cell-based; settings: erythrocyte, at 1.5 µg/mL
# [29] = Hemolytic activity in human RBC infected with Streptococcus suis 05ZYH33 at 2 ug/ml measured after 1 hr by microplate reader method; assay type: toxicity, cell-based; settings: erythrocyte, at 2 µg/mL
# Candida albicans [30] = experiment: Antibiofilm activity against Candida albicans LAM-1 at 0.2 ug/ml incubated for 24 hrs by crystal violet staining based assay; assay type: functional
# Candida albicans [31] = experiment: Antibiofilm activity against Candida albicans LAM-1 at 2 ug/ml incubated for 24 hrs by crystal violet staining based assay relative to control; assay type: functional
# Candida albicans [32] = experiment: Antibiofilm activity against Candida albicans ATCC 28366 at 0.2 ug/ml incubated for 24 hrs by crystal violet staining based assay relative to control; assay type: functional
# Candida albicans [33] = experiment: Antibiofilm activity against Candida albicans ATCC 28366 at 2 ug/ml incubated for 24 hrs by crystal violet staining based assay relative to control; assay type: functional
# Streptococcus suis [34] = experiment: Antibiofilm activity against Streptococcus suis 05ZYH33 assessed as inhibition of biofilm formation at 3 ug/ml incubated for 18 to 24 hrs by crystal violet staining based assay relative to control; assay type: functional; settings: time 18-24 hrs
# Streptococcus suis [35] = experiment: Antibiofilm activity against Streptococcus suis 05ZYH33 assessed as inhibition of biofilm formation at 4 ug/ml incubated for 18 to 24 hrs by crystal violet staining based assay relative to control; assay type: functional; settings: time 18-24 hrs
# Staphylococcus aureus [36] = experiment: Antibacterial activity against Staphylococcus aureus ATCC 29213 assessed as bacterial growth inhibition incubated for 24 hrs by CLSI-based assay; assay type: functional
# Staphylococcus aureus [37] = experiment: Antibiofilm activity against Staphylococcus aureus ATCC 29213 at 16 ug/ml relative to control; assay type: functional
# Staphylococcus aureus [38] = experiment: Antibiofilm activity against Staphylococcus aureus ATCC 29213 at 128 ug/ml relative to control; assay type: functional
# Enterococcus faecalis [39] = experiment: Antibacterial activity against Enterococcus faecalis 16C51 assessed as bacterial growth inhibition by CLSI based broth microdilution assay; assay type: functional
# Enterococcus faecalis [40] = experiment: Antibacterial activity against Enterococcus faecalis 16C106 assessed as bacterial growth inhibition by CLSI based broth microdilution assay; assay type: functional
# Enterococcus faecalis [41] = experiment: Antibiofilm activity against Enterococcus faecalis 16C51 at 2.115 ug/ml incubated for 24 hrs by crystal violet staining based assay relative to control; assay type: functional
# Enterococcus faecalis [42] = experiment: Antibiofilm activity against Enterococcus faecalis 16C51 at 4.23 ug/ml incubated for 24 hrs by crystal violet staining based assay relative to control; assay type: functional
# Enterococcus faecalis [43] = experiment: Antibiofilm activity against Enterococcus faecalis 16C106 at 2.115 ug/ml incubated for 24 hrs by crystal violet staining based assay relative to control; assay type: functional
# Enterococcus faecalis [44] = experiment: Antibiofilm activity against Enterococcus faecalis 16C106 at 4.23 ug/ml incubated for 24 hrs by crystal violet staining based assay relative to control; assay type: functional
smiles,measurement,setting,value
COc1c(/C=C/C(=O)c2ccc(O)cc2)ccc(O)c1CC=C(C)C,IC50,[1],23.4 µM
same,MIC,Staphylococcus aureus [2],6.25 µg/mL
same,MIC,Bacillus subtilis,12.5 µg/mL
same,MIC,Micrococcus luteus,6.25 µg/mL
same,MIC,Escherichia coli [3],> 100 µg/mL
same,MIC,Pseudomonas aeruginosa,> 100 µg/mL
same,IC50,[4],3 µM
same,IC50,[5],7.4 µM
same,IC50,[6],13.9 µM
same,IC50,[7],29.6 µM
COc1c(/C=C/C(=O)c2ccc(O)cc2)ccc(O)c1O,MIC,Staphylococcus aureus [2],100 µg/mL
same,MIC,Bacillus subtilis,10 µg/mL
same,MIC,Micrococcus luteus,50 µg/mL
CC1(C)C=Cc2c(ccc(C(=O)/C=C/c3ccc(O)cc3)c2O)O1,MIC,Staphylococcus aureus [8],4 µg/mL
C=C(C)[C@@H](C)c1cc(/C=C/C(=O)c2ccc(O)cc2)c(OC)cc1O,inhibition (INH),[9],33%
same,inhibition (INH),[10],58%
same,MIC,Staphylococcus aureus [11],2 µg/mL
same,MIC,Staphylococcus aureus [12],2 µg/mL
O=C(/C=C/c1ccc(O)c(O)c1)c1ccc(O)cc1O [BUTEIN],IC50,[13],22 µg/mL
same,IC50,[14],30 µg/mL
same,IC50,[15],10 µM
same,IC50,[16],30 µM
same,MIC,Escherichia coli [17],32 µM
C=CC(C)(C)c1cc(/C=C/C(=O)c2ccc(O)cc2)c(OC)cc1O [LICOAGROCHACONE A],IC50,[1],8 µM
same,MIC,Staphylococcus aureus [2],1.56 µg/mL
same,MIC,Bacillus subtilis,3.13 µg/mL
same,MIC,Micrococcus luteus,1.56 µg/mL
same,MIC,Rhizomucor pusillus,12.5 µg/mL
same,MIC,Escherichia coli [3],> 100 µg/mL
same,MIC,Pseudomonas aeruginosa,> 100 µg/mL
same,IC50,[4],6.2 µM
same,IC50,[5],9.5 µM
same,IC50,[6],18.9 µM
same,IC50,[7],14.8 µM
same,MIC,Staphylococcus aureus [18],4 µg/mL
same,MIC,Staphylococcus aureus [19],4 µg/mL
same,MIC,Candida albicans [20],12.5 µg/mL
same,MIC,Candida albicans [21],6.25 µg/mL
same,inhibition at 100 µg/mL,Candida albicans [22],79%
same,inhibition at 100 µg/mL,Candida albicans [23],100%
same,MIC,Staphylococcus aureus [24],4 µg/mL
same,inhibition (INH),[25],95%
same,inhibition (INH),[26],93%
same,MIC,Streptococcus suis [27],4 µg/mL
same,inhibition (INH),[28],63%
same,inhibition (INH),[29],81%
same,inhibition at 0.2 µg/mL,Candida albicans [30],35%
same,inhibition at 2 µg/mL,Candida albicans [31],76%
same,inhibition at 0.2 µg/mL,Candida albicans [32],59%
same,inhibition at 2 µg/mL,Candida albicans [33],81%
same,inhibition at 3 µg/mL,Streptococcus suis [34],30%
same,inhibition at 4 µg/mL,Streptococcus suis [35],60%
same,MIC,Staphylococcus aureus [36],2 µg/mL
same,inhibition at 16 µg/mL,Staphylococcus aureus [37],60%
same,inhibition at 128 µg/mL,Staphylococcus aureus [38],60%
same,MIC,Enterococcus faecalis [39],8.46 µg/mL
same,MIC,Enterococcus faecalis [40],8.46 µg/mL
same,inhibition at 2.115 µg/mL,Enterococcus faecalis [41],50%
same,inhibition at 4.23 µg/mL,Enterococcus faecalis [42],80%
same,inhibition at 2.115 µg/mL,Enterococcus faecalis [43],50%
same,inhibition at 4.23 µg/mL,Enterococcus faecalis [44],85%
COc1c(/C=C/C(=O)c2ccc(O)c(CC=C(C)C)c2)ccc(O)c1O [LICOCHALCONE D],MIC,Staphylococcus aureus [2],50 µg/mL
same,MIC,Bacillus subtilis,50 µg/mL
same,MIC,Micrococcus luteus,50 µg/mL
